Measurements: patent US20190125715A1, “CDDO-Me AS A THERAPY FOR LUPUS” (priority 2014, published 2019)

What was measured:
B6.Sle1.Sle3 mice = test: Preventive experiment in B6.Sle1.Sle3 mice: spleen weight, splenic cellularity and lymphocyte subsets by flow cytometry; assay type: in vivo, mouse; parameters: Splenic B cells: B220+, AA4.1+ (mature) / Splenic B cells: Follicular B cells / Splenic B cells: Marginal zone B cells / Splenic B cells: B1a cells / Splenic B cells: B220+, AA4.1+ (immature) / Splenic B cells: T1 immature / Splenic B cells: T2 immature / Splenic B cells: T3 immature / Splenic T cells: CD4 T cells / Splenic T cells: CD8 T cells: unit not given here
Experimental: Flow cytometric analysis and antibodies: Splenocytes were depleted of red blood cells using a lysis buffer (containing 0.15M NH4Cl, 10 mM KHCO3, and 0.1 mM Na2EDTA, pH 7.2), and single-cell suspensions were prepared for flow cytometric analysis. Flow cytometric analysis was performed as described previously (17).
In vivo experiments: In the first preventive experiment, CDDO-Me was diluted in sesame oil. Two-month-old B6.Sle1.Sle3 mice (n=20) received CDDO-Me at a final dose of 3 mg/kg or vehicle alone (i.e., placebo), by oral gavage 3 times per week for a period of 2 months. In a confirmatory preventive study, 2-month-old MRL/lpr mice (n=8 per group) were orally administered CDDO-Me (3 mg/kg), sesame oil, water, or dexamethasone (1 mg/kg) 3 times a week for 2 months. Serum and 24-hour urine samples were obtained on days 0, 14, and 60. All serum samples were subjected to ELISA for autoantibodies, and urine samples were assayed for total protein as previously described (17,18). On day 60, when mice were killed, the cellular composition of the spleen and lymph nodes was determined by flow cytometry, and the kidneys were examined for pathology, as described below. In addition, the expression of various signaling molecules in the spleens and kidneys of the treated mice was assayed by Western blotting, as described above. In the treatment experiment, 7-month-old NZM2410 mice with proteinuria (n=4-7 per group) were treated with CDDO-Me (3 mg/kg) or placebo by oral gavage 5 times per week for a period of 2 months. Proteinuria, autoantibody production, spleen weight, and survival rates were assessed.
To address this, 2-month-old female B6.Sle1.Sle3 mice were treated for 60 days with CDDO-Me or placebo, and then spleen size and cellularity were assessed in both groups.

[1] = mouse, in vivo
Source text: Since this was a relatively long-term study, and since CDDO-Me cripples multiple signaling axes, one concern can be potential side effects. After 60 days of drug administration (either in the preventive or treatment experiment), body weights of mice from both the CDDO-Me group and the placebo group were similar. […] In addition, liver function was monitored by assaying aspartate aminotransferase (AST); however, there were no significant changes in the CDDO-Me-treated group (AST activity 75.7±6.5 units/liter) compared to the placebo group (74.0±5.8 units/liter).

[2] = absolute cell number in spleen, 4-month-old mice, 60 days treatment, mean ± SEM, n=10

all blood cell counts (WBC, RBC, hemoglobin, hematocrit, MCV, MCH, MCHC, RDW, MPV, neutrophils, lymphocytes, eosinophils) versus placebo group [1]: remained similar | platelet counts versus placebo group [1]: comparable
Structure (SMILES): COC(=O)[C@]12CCC(C)(C)C[C@H]1[C@H]1C(=O)C=C3[C@@]4(C)C=C(C#N)C(=O)C(C)(C)[C@@H]4CC[C@@]3(C)[C@]1(C)CC2 [CDDO-Me, methyl-2-cyano-3,12-dioxooleana-1,9-dien-28-oate]
Total spleen cell count (B6.Sle1.Sle3 mice; 4-month-old B6.Sle1.Sle3 mice after 60 days CDDO-Me 3 mg/kg oral gavage 3 times per week, mean ± SEM, n=10): 89.1 ± 2.3 10^6 | percentage of CD8+ T cells among splenic T cells (B6.Sle1.Sle3 mice; 60 days treatment, mean±SEM, placebo 6.8±1.1%, P=0.023): 9.73±0.4% | percentage of CD4+ T cells among splenic T cells (B6.Sle1.Sle3 mice; 60 days treatment, mean±SEM, placebo 15.1±1.2%, P=0.021): 12.1±0.35% | B cell activation, surface CD86 expression (B6.Sle1.Sle3 mice; 60 days treatment, placebo 8.72±0.45, P<0.002): 6.48±0.42 mean fluorescence intensity units | absolute number of total splenic CD4+ T cells (B6.Sle1.Sle3 mice; 60 days treatment, placebo 39.0±2.0 million, P<0.0001): 18.7±3.8 million | Splenic B cells: B1a cells (B6.Sle1.Sle3 mice; [2]): 4.0 ± 0.3 | Splenic B cells: B220+, AA4.1+ (immature) (B6.Sle1.Sle3 mice; [2]): 10.4 ± 1.1 | Splenic B cells: B220+, AA4.1+ (mature) (B6.Sle1.Sle3 mice; [2]): 45.3 ± 3.2 | Splenic B cells: Follicular B cells (B6.Sle1.Sle3 mice; [2]): 30.9 ± 1.6 | Splenic B cells: Marginal zone B cells (B6.Sle1.Sle3 mice; [2]): 4.0 ± 0.2 | Splenic B cells: T1 immature (B6.Sle1.Sle3 mice; [2]): 1.0 ± 0.1 | Splenic B cells: T2 immature (B6.Sle1.Sle3 mice; [2]): 3.1 ± 0.2 | Splenic B cells: T3 immature (B6.Sle1.Sle3 mice; [2]): 4.0 ± 0.2 | Splenic T cells: CD4 T cells (B6.Sle1.Sle3 mice; [2]): 18.7 ± 3.8 | Splenic T cells: CD8 T cells (B6.Sle1.Sle3 mice; [2]): 8.6 ± 2.4 | Splenic T cells: CD69+/CD4 T cells (B6.Sle1.Sle3 mice; [2]): 5.1 ± 0.6 | Splenic T cells: CD69+/CD8 T cells (B6.Sle1.Sle3 mice; [2]): 0.6 ± 0.1 | decrease of overall spleen weights compared to the placebo-treated group (B6.Sle1.Sle3 mice; female B6.Sle1.Sle3 mice treated for 60 days): ~50% | AST activity (liver function) [1]: 75.7±6.5 units/liter
